According to ChEMBL document CHEMBL4418495, “Entpd5 inhibitors” (2012):
The source made the active and inactive calls.

Columns and labels:
[1] = target: T1, Ectonucleoside triphosphate diphosphohydrolase 5 (Mus musculus) (UniProt Q9WUZ9); test: Inhibition of ENTPD5 in PTEN knockout mouse MEF cells assessed as induction of ER stress by measuring increase in GRP78/BiP expression at 30 uM incubated for 24 hrs by Western blotting analysis; format: cell-based
T1 sequence (whole entry): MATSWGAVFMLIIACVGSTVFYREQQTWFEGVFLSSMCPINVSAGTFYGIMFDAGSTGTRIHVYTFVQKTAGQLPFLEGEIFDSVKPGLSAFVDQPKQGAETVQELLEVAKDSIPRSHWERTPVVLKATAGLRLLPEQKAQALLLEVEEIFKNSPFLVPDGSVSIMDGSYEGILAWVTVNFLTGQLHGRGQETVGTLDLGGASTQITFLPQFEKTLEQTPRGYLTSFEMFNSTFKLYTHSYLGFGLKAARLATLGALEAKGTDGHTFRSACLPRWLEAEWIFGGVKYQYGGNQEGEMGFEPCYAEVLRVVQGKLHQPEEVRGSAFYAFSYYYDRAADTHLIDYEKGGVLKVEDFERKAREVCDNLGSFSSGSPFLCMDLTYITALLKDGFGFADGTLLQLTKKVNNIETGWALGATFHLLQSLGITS

[2] = target: T1, Ectonucleoside triphosphate diphosphohydrolase 5 (Mus musculus); test: Inhibition of ENTPD5 in PTEN knockout mouse MEF cells assessed as induction of ER stress by measuring increase in GRP78/BiP expression incubated for 24 hrs by Western blotting analysis; format: cell-based
[3] = target: T1, Ectonucleoside triphosphate diphosphohydrolase 5 (Mus musculus); test: Inhibition of ENTPD5 in PTEN knockout mouse MEF cells assessed as induction of ER stress by measuring increase in EGF receptor degradation incubated for 24 hrs by Western blotting analysis; format: cell-based
LNCaP [4] = test: Antitumor activity against human LNCAP cells xenografted in mouse assessed as induction of tumor shrinkage at 1 to 100 mg/kg, ip dosed every other day and measured after 6 weeks by microscopy; format: functional, organism-based
LNCaP [5] = test: Antitumor activity against human LNCAP cells xenografted in mouse assessed as reduction in cells left in matrigels at 1 to 100 mg/kg, ip dosed every other day and measured after 6 weeks by hematoxylin and eosin staining based microscopy; format: functional, organism-based
[6] = target: T2, Nucleoside diphosphate phosphatase ENTPD5 (Homo sapiens) (UniProt O75356); test: Inhibition of human recombinant ENTPD5 expressed in insect cells assessed as reduction in UDP hydrolysis at 1 uM incubated for 1 hr in presence of UMP, GTP and ATP by Escherichia coli UMP kinase pyrH catalyzed UMP phosphorylation coupled luciferase assay
T2 sequence (whole entry): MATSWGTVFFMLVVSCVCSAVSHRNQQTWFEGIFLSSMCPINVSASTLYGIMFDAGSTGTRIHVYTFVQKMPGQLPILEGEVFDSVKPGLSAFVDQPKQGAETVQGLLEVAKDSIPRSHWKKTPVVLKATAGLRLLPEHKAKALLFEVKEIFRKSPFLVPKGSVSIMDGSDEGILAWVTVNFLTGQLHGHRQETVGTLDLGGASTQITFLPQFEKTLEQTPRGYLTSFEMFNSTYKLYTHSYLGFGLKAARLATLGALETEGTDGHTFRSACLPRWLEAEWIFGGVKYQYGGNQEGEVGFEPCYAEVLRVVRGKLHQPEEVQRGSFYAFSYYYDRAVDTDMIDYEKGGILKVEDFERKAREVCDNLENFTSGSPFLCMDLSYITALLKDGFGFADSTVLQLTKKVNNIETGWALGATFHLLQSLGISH

[7] = target: T2, Nucleoside diphosphate phosphatase ENTPD5 (Homo sapiens); test: Inhibition of human recombinant ENTPD5 expressed in insect cells assessed as reduction in UDP hydrolysis up to 10 uM incubated for 1 hr in presence of UMP, GTP and ATP by Escherichia coli UMP kinase pyrH catalyzed UMP phosphorylation coupled luciferase assay
[8] = target: T3, Uridylate kinase (Escherichia coli (strain K12)) (UniProt P0A7E9); test: Inhibition of recombinant Escherichia coli UMP kinase pyrH catalyzed UMP phosphorylation in presence of GTP and ATP incubated for 1 hr by luminescence based assay
T3 sequence (whole entry): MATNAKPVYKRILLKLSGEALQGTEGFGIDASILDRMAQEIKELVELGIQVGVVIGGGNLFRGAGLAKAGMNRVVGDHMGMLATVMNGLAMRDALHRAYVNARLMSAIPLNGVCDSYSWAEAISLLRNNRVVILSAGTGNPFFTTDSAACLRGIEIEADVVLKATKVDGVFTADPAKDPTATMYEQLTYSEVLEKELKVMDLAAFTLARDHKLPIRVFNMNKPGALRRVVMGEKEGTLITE

[9] = target: T2, Nucleoside diphosphate phosphatase ENTPD5 (Homo sapiens); test: Inhibition of human recombinant ENTPD5 expressed in insect cells assessed as reduction in reduction in UDP hydrolysis by measuring inorganic phosphate release incubated for 1 hr by malachite green based assay
[10] = target: T4, Nucleoside diphosphate phosphatase ENTPD5 (Homo sapiens, UniProt O75356); test: Inhibition of human recombinant ENTPD5 expressed in insect cells assessed as reduction in UDP hydrolysis incubated for 1 hr in presence of UMP, GTP and ATP by Escherichia coli UMP kinase pyrH catalyzed UMP phosphorylation coupled luciferase assay
T4 sequence (O75356 whole entry): T2 sequence (whole entry)

MEF = test: Toxicity in PTEN knockout mouse MEF cells assessed as reduction in cell viability at 30 uM incubated for 24 hrs; format: cell-based

Compound | inhibition [1] | inhibition [2] | inhibition [3] | Activity (LNCaP [4]) | Activity (LNCaP [5]) | inhibition [6] | inhibition [7] | inhibition [8] | inhibition [9] | IC50 [10] [µM] | Activity (MEF)
CCOc1ccc(N2C(=O)/C(=C/c3cccn3-c3ccc(Br)cc3)C(=O)NC2=S)c(F)c1 | Active | Dose-dependent effect | Dose-dependent effect | Active | Active | Active | Dose-dependent effect | inactive | Active | – | –
O=C1/C(=C/c2ccc(O)c([N+](=O)[O-])c2)SC(=S)N1c1cccc(C(F)(F)F)c1 | Active | – | – | Active | Active | Active | Dose-dependent effect | inactive | Active | – | –
Cc1cc(I)cc2c1NC(c1ccc([N+](=O)[O-])cc1)C1CC=CC21 (centres undefined) | Active | – | – | Active | Active | Active | Dose-dependent effect | inactive | Active | – | –
O=C1NC(=S)NC(=O)C1=Cc1ccc(-c2ccc(Br)cc2)o1 | Active | – | – | Active | Active | Active | Dose-dependent effect | inactive | Active | – | –
S=C(Nc1ccc2nc(-c3ccco3)c(-c3ccco3)nc2c1)N1CCCC1 | Active | – | – | Active | Active | Active | Dose-dependent effect | inactive | Active | – | –
O=C1NC(=O)N(c2ccc(F)cc2)C(=O)/C1=C/c1ccc(Sc2ccc(Cl)cc2)o1 | Active | – | – | Active | Active | Active | Dose-dependent effect | inactive | Active | – | –
O=C1NC(=O)C(=Cc2ccc(-c3ccc(I)cc3)o2)C(=O)N1 | Active | – | – | Active | Active | Active | Dose-dependent effect | inactive | Active | – | –
O=C1NC(=S)NC(=O)C1=Cc1ccc(-c2ccc(Cl)c(Cl)c2)o1 | Active | – | – | Active | Active | Active | Dose-dependent effect | inactive | Active | – | –
Cc1ccc2nc(Nc3nc(O)c(CCC(C)C)c(=O)[nH]3)nc(C)c2c1 | Active | – | – | Active | Active | Active | Dose-dependent effect | inactive | Active | – | –
C[C@H]1CC[C@@H]2C(CCCC2(C)C)[C@]1(C)c1cc(O)ccc1O (some centres undefined) | – | – | – | – | – | – | – | – | – | 30 | –
CC1(C)CCC[C@]2(C)[C@H]3Cc4cc(O)ccc4O[C@]3(C)CC[C@@H]12 | – | – | – | – | – | – | – | – | – | 10 | –
N#CC1=C(c2ccco2)CC(c2ccccc2)NC1=S (centres undefined) | Active | – | – | Active | Active | Active | Dose-dependent effect | inactive | Active | – | –
C[C@H]1CC[C@H]2C(C)(C)CCC[C@]23Oc2ccc(O)cc2C[C@]13C [AUREOL] | – | – | – | – | – | – | – | – | – | 15 to 20 | Toxic
N=C1S/C(=C\c2ccc(N3CCOCC3)cc2)C(=O)N1c1ccc(Br)cc1 | Active | – | – | Active | Active | Active | Dose-dependent effect | inactive | Active | – | –
CCOC(=O)c1ccc(-c2ccc(/C=C3/C(=O)NC(=O)N(Cc4ccco4)C3=O)o2)cc1 | Active | – | – | Active | Active | Active | Dose-dependent effect | inactive | Active | – | –
COc1ccccc1/C=N\NC(=O)c1cc2c(C)nn(-c3ccccc3)c2s1 | Active | – | – | Active | Active | Active | Dose-dependent effect | inactive | Active | – | –
O=C1NC(=S)N(c2ccccc2)C(=O)/C1=C/c1ccc(-c2cc([N+](=O)[O-])ccc2Cl)o1 | Active | – | – | Active | Active | Active | Dose-dependent effect | inactive | Active | – | –
O=C1/C(=C/c2ccco2)C(=O)N(c2ccc(Br)cc2)C(=S)N1c1ccccc1 | Active | – | – | Active | Active | Active | Dose-dependent effect | inactive | Active | – | –
COc1ccc(-n2cccc2/C=C2\C(=O)NC(=S)N(c3cccc(Br)c3)C2=O)cc1 | Active | Dose-dependent effect | Dose-dependent effect | Active | Active | Active | Dose-dependent effect | inactive | Active | – | –
O=C1/C(=C/c2ccc(O)c([N+](=O)[O-])c2)SC(=S)N1c1cccc(Cl)c1 | Active | – | – | Active | Active | Active | Dose-dependent effect | inactive | Active | – | –
O=C(Nc1ccccc1)NC(N1CCOCC1)C(Cl)(Cl)Cl (centres undefined) | Active | – | – | Active | Active | Active | Dose-dependent effect | inactive | Active | – | –
C[C@H]1CC[C@]2(C)C(CCCC2(C)C)[C@]1(C)c1cc(O)ccc1O (some centres undefined) | – | – | – | – | – | – | – | – | – | 30 | –
O=C1NC(=O)N(c2ccc(I)cc2)C(=O)/C1=C/c1cnn(-c2ccccc2)c1 | Active | – | – | Active | Active | Active | Dose-dependent effect | inactive | Active | – | –
O=C(CN1C(=O)/C(=C2\SC(N3CCOCC3)=NC2=O)c2ccccc21)Nc1cccc(Br)c1 | Active | – | – | Active | Active | Active | Dose-dependent effect | inactive | Active | – | –
